From US20260347387A1, “Lipid-Gold Salt Molecules and Formulation in Lipid Nanoparticle Delivery Systems” (NORTHWESTERN UNIVERSITY, priority 2023, published 2026) come the findings set out here.

Each structure is given as a SMILES string.

The assay deals with TOV-21G ovarian cancer cells. Briefly: Cell viability assay, TOV-21G clear cell ovarian cancer cells. The assay is classed as cell-based. The following applies: Table C, FIGS. 24, 25. The method, then:
In vitro cellular viability assay. ES-2 (2,500 cells/well), 786-0 ccRCCa (400 cells/well), Ramos (16,000 cells/well), SUDHL4 (16,000 cells/well), Jurkat (16,000 cells/well), CWR-R1 (1,000 cells/well), LNCaP (2,000 cells/well), and 22rv1 (2,000 cells/well) were plated into 96 well plates. Adherent ES-2, CWR-R1, LNCaP, 22rv1, and 786-0 cells were incubated for 24 h. Media in the wells was then replaced with pre-prepared media containing the appropriate drug formulations at the appropriate drug concentration. Ramos, SUDHL4, and Jurkat cells are suspension cell lines and were plated and treated on the same day. After 72 h, cell viability was measured via an MTS cell-proliferation assay (CellTiter 96 Aqueous One, Promega; Madison, WI) and the relative cell-survival percentages compared to the vehicle control were plotted against the concentration of either the AuNP or the oc-HDL NPs in logarithmic scale. The data reported represent an average of three measurements.
Addition of gold salts to HDL-NPs disclosed herein decreased cell viability more than the addition of gold salts to oc-HDL NPs disclosed herein in a clear cell ovarian cancer model (TOV-21Gcell line). Cells were treated with gold-bearing HDL-NPs or gold salts as disclosed herein in an assay described in the Materials and protocols for in vitro studies section above.

For `CCP(CC)CC.[Au+].[Cl-]` [Et3PAuCl, Chloro(triethylphosphine)gold(I)], the IC50 was determined as 9.74 nM.

As a reminder, the IC50 is the concentration that inhibits the measured activity by half. Read a high IC50 as a need for much substance.
